Where two headings read alike, the source gives them in different places.
How the values were obtained:
[1] = tested on: Flu virus strain A/Puerto Rico/8/1934 (PR8); experiment: microbe, parasite or virus in culture; format: cell-based; conditions: unidentified influenza virus, PR8, MDCK, MDCK cells
[2] = Solubility on dilution of 10 mM DMSO stocks; format: physicochemical; conditions: 10 mM stocks in DMSO
Protocol: Antiviral compounds: Favipiravir, Mycophenolate, and Viramidine were prepared as 10 mM stocks in dimethyl sulfoxide (DMSO) and were soluble when diluted in various reaction mixtures and cell culture media. […] Also, combination of Favipiravir with each of the other drugs were tested.

[3] = 48 h, read-out: estimated IC50 when used alone, Example A, PR8 Flu virus 0.01 MOI, 48 hours
[4] = read-out: IC50, inhibition of influenza virus cytopathic activity, drug alone, FIG. 1 experiment, influenza A/PR8 m.o.i. 0.01, pre-treated 1 h, two days
[5] = read-out: IC50, inhibition of influenza virus cytopathic activity, drug alone, FIG. 7 experiment, influenza m.o.i. 0.01, pre-treated 1 h, two days

SMILES	IC50 [1, 3]	IC50 [1, 4]	IC50 [1, 5]	solubility when diluted in reaction mixtures and cell culture media [2]
NC(=O)c1nc(F)c[nH]c1=O [Favipiravir, favipiravir]	25 µM	26.5 µM	25.1 µM	soluble
COc1c(C)c2c(c(O)c1C/C=C(\C)CCC(=O)O)C(=O)OC2 [Mycophenolate]	1.42 µM	1.4 µM	–	soluble
N=C(N)c1ncn([C@@H]2O[C@H](CO)[C@@H](O)[C@H]2O)n1 [Viramidine, viramidine]	94.7 µM	–	94.7 µM	soluble

Source: patent publication US20250332162A1 (priority 2022, published 2025)
